Experiments:
Format in all cases: cell-based
SW480 (colon cancer) = test: Antiproliferative activity (CCK-8 cell viability), SW480; conditions: Homo sapiens, 72 h, read-out: Antiproliferative activity in cancerous cells, SW480 (inhibition of cell growth); for inhibition at 3.3 µM: Compound concentration: 3.3 μM; for inhibition at 10 µM: Compound concentration: 10 μM
In short: (§1)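 Growth inhibition graded in bands from percent viability against DMSO vehicle, read as CCK-8 absorbance at 450 nm. Compound tested at 3.3, 10 or 30 μM for 72 h, 37 °C; media contained 10% FBS: DMEM for HepG2/SW480, MEM for HeLa, F-12K for A549.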

[1] = tested on: A431 (epidermoid carcinoma); test: Antiproliferative activity (CCK-8 cell viability), A431; conditions: Homo sapiens, 72 h; for inhibition at 3.3 µM: A-431, Compound concentration: 3.3 μM; for inhibition at 3.3 µM / inhibition at 10 µM: read-out: Antiproliferative activity in cancerous cells, A431 (inhibition of cell growth); for inhibition at 10 µM: A-431, Compound concentration: 10 μM
In short: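 This growth inhibition assay used A431 cells maintained in Dulbecco's modified Eagle's medium plus 10% fetal bovine serum. Cells were seeded in 96-well plates, treated with compound for 72 h at 37° C., and then given 10 μL CCK-8 solution. After a further 4 h, absorbance was read at 450 nm.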

[2] = tested on: A549 (lung adenocarcinoma); test: Antiproliferative activity (CCK-8 cell viability), A549; conditions: Homo sapiens, 72 h, read-out: Antiproliferative activity in cancerous cells, A549 (inhibition of cell growth); for inhibition at 3.3 µM: Compound concentration: 3.3 μM; for inhibition at 10 µM: Compound concentration: 10 μM
In short: as §1

HeLa (cervical cancer) = test: Antiproliferative activity (CCK-8 cell viability), HeLa; conditions: Homo sapiens, 72 h, read-out: Antiproliferative activity in cancerous cells, HELA (inhibition of cell growth); for inhibition at 3.3 µM: Compound concentration: 3.3 μM; for inhibition at 10 µM: Compound concentration: 10 μM
In short: as §1

[3] = tested on: MDA-MB-231 (breast cancer); test: Antiproliferative activity (CCK-8 cell viability), MDA-MB-231; conditions: Homo sapiens, 72 h, read-out: Antiproliferative activity in cancerous cells, MDA-MB-231 (inhibition of cell growth); for inhibition at 3.3 µM: Compound concentration: 3.3 μM; for inhibition at 10 µM: Compound concentration: 10 μM
In short: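 Growth inhibition of human MDA-MB-231 breast cancer cells was assessed with a Cell Counting Kit-8. Cells cultured in DMEM plus 10% FBS were seeded at 2,000-5,000 cells/well, treated after attachment, and kept 72 h at 37° C. CCK-8 solution (10 μL) was added for 4 h, and absorbance at 450 nm was compared with DMSO-treated controls.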

HepG2 (liver cancer) = test: Antiproliferative activity (CCK-8 cell viability), HepG2; conditions: Homo sapiens, 72 h, read-out: Antiproliferative activity in cancerous cells, HepG2 (inhibition of cell growth); for inhibition at 3.3 µM: Compound concentration: 3.3 μM; for inhibition at 10 µM: Compound concentration: 10 μM
In short: as §1

[4] = tested on: B16F10 (malignant melanoma); test: Antiproliferative activity (CCK-8 cell viability), B16F10; conditions: Mus musculus, 72 h, read-out: Antiproliferative activity in cancerous cells, B16F10 (inhibition of cell growth); for inhibition at 3.3 µM: B16-F10, Compound concentration: 3.3 μM; for inhibition at 10 µM: B16-F10, Compound concentration: 10 μM
In short: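 Cell growth inhibition was measured in B16F10 malignant melanoma cells with a Cell Counting Kit-8 viability assay. Cells were maintained in DMEM plus 10% fetal bovine serum, seeded at 2,000-5,000 cells/well in 96-well plates, and treated for 72 h at 37° C. Viability was expressed relative to DMSO-treated vehicle control wells.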

CC1=C(CC(=O)O)c2cc(F)ccc2/C1=C\c1cccc(C[S+]([O-])c2ccc(F)cc2)c1 (centres unmarked) [B50, (Z)-2-(5-Fluoro-1-(3-(((4-fluorophenyl)sulfinyl)methyl)benzylidene)-2-methyl-1H-inden-3-yl)acetic acid]
30 to 50%: inhibition at 10 µM (SW480 (colon cancer)) | inhibition at 30 µM ([1]; A-431, Compound concentration: 30 μM, read-out: Antiproliferative activity in cancerous cells, A431) | inhibition at 10 µM (HeLa (cervical cancer)) | inhibition at 3.3 µM [3]
≥ 50%: inhibition at 10 µM [3] | inhibition at 3.3 µM [4] | inhibition at 10 µM [4]
< 30%: inhibition at 3.3 µM (SW480 (colon cancer)) | inhibition at 3.3 µM [1] | inhibition at 10 µM [1] | inhibition at 3.3 µM [2] | inhibition at 10 µM [2] | inhibition at 3.3 µM (HeLa (cervical cancer)) | inhibition at 3.3 µM (HepG2 (liver cancer)) | inhibition at 10 µM (HepG2 (liver cancer))

COc1ccc(COCc2ccc(/C=C3/C(C)=C(CC(=O)O)c4cc(F)ccc43)cc2)cc1Cl [B108, (Z)-2-(1-(4-(((3-Chloro-4-methoxybenzyl)oxy)methyl)benzylidene)-5-fluoro-2-methyl-1H-inden-3-yl)acetic acid]
< 30%: inhibition at 3.3 µM (SW480 (colon cancer)) | inhibition at 3.3 µM (HepG2 (liver cancer))
≥ 50%: inhibition at 10 µM (SW480 (colon cancer)) | inhibition at 10 µM [1] | inhibition at 10 µM [2] | inhibition at 10 µM (HeLa (cervical cancer)) | inhibition at 3.3 µM [3] | inhibition at 10 µM [3] | inhibition at 10 µM (HepG2 (liver cancer)) | inhibition at 10 µM [4]
30 to 50%: inhibition at 3.3 µM [1] | inhibition at 3.3 µM [2] | inhibition at 3.3 µM (HeLa (cervical cancer)) | inhibition at 3.3 µM [4]

CC1=C(CC(=O)O)c2cc(Br)ccc2/C1=C\c1ccc(Oc2ccc(Cl)cc2)cc1 [C77, (Z)-2-(5-Bromo-1-(4-(4-chlorophenoxy)benzylidene)-2-methyl-1H-inden-3-yl)acetic acid]
≥ 50%: inhibition at 10 µM [2] | inhibition at 3.3 µM (HeLa (cervical cancer)) | inhibition at 10 µM (HeLa (cervical cancer)) | inhibition at 3.3 µM [3] | inhibition at 10 µM [3] | inhibition at 10 µM (HepG2 (liver cancer)) | inhibition at 3.3 µM [4] | inhibition at 10 µM [4]
< 30%: inhibition at 3.3 µM (SW480 (colon cancer)) | inhibition at 3.3 µM [1] | inhibition at 10 µM [1] | inhibition at 3.3 µM [2]
30 to 50%: inhibition at 10 µM (SW480 (colon cancer)) | inhibition at 3.3 µM (HepG2 (liver cancer))

CC1=C(CC(=O)O)c2cc(F)ccc2/C1=C\c1ccc(CN(CCc2ccccc2)c2ccccc2)cc1 [B19, (Z)-2-(5-Fluoro-2-methyl-1-(4-((phenethyl(phenyl)amino)methyl)benzylidene)-1H-inden-3-yl)acetic acid]
< 30%: inhibition at 3.3 µM [1] | inhibition at 3.3 µM (HepG2 (liver cancer)) | inhibition at 3.3 µM [4]
30 to 50%: inhibition at 3.3 µM (SW480 (colon cancer)) | inhibition at 3.3 µM (HeLa (cervical cancer))
≥ 50%: inhibition at 10 µM (SW480 (colon cancer)) | inhibition at 10 µM [1] | inhibition at 3.3 µM [2] | inhibition at 10 µM [2] | inhibition at 10 µM (HeLa (cervical cancer)) | inhibition at 3.3 µM [3] | inhibition at 10 µM [3] | inhibition at 10 µM (HepG2 (liver cancer)) | inhibition at 10 µM [4]

CC1=C(CC(=O)O)c2cc(F)ccc2/C1=C\c1ccc(COCc2ccc(F)c(F)c2)cc1 [B105, (Z)-2-(1-(4-(((3,4-Difluorobenzyl)oxy)methyl)benzylidene)-5-fluoro-2-methyl-1H-inden-3-yl)acetic acid]
30 to 50%: inhibition at 3.3 µM (SW480 (colon cancer)) | inhibition at 3.3 µM [1] | inhibition at 3.3 µM [2] | inhibition at 3.3 µM [3] | inhibition at 3.3 µM [4]
≥ 50%: inhibition at 10 µM (SW480 (colon cancer)) | inhibition at 10 µM [1] | inhibition at 10 µM [2] | inhibition at 3.3 µM (HeLa (cervical cancer)) | inhibition at 10 µM (HeLa (cervical cancer)) | inhibition at 10 µM [3] | inhibition at 10 µM (HepG2 (liver cancer)) | inhibition at 10 µM [4]
< 30%: inhibition at 3.3 µM (HepG2 (liver cancer))
